The source of these data is patent US6924302B2, “Substituted triazole diamine derivatives as kinase inhibitors” (Ortho McNeil Pharmaceutical, Inc., priority 2000, dated 2005).

Bounds are passed on as bounds.

For one assay, the target named is Insulin Receptor Kinase (Homo sapiens, UniProt P06213). Briefly: Kinase Selectivity Assay Insulin Receptor Kinase. The assay is classed as biochemical. Conditions: Kinase Selectivity, Tables 2a-2k; read-out: Insulin R Kinase IC50. The essentials:
(§1)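 Reactions ran one hour at 30° C in 1% DMSO with enzyme diluted in 50 mM Tris-HCl pH 8.0, 0.1% BSA. Scintillation counting read ^33P incorporated into immobilized biotinylated peptide.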

A further assay has as its target T1, Protein Kinase A (Bos taurus, UniProt P00517).
T1 construct: purified from bovine heart; purchased Upstate Biotech 14-114; host or cells: bovine heart
Briefly: Kinase Selectivity Assay Protein Kinase A. The assay is classed as biochemical, bovine. Conditions: Kinase Selectivity, Tables 2a-2k; read-out: PKA IC50. In a few lines:
as §1

The target in assay [1] is T2, Casein Kinase 2 (alpha and beta subunits) (Homo sapiens, UniProt P68400).
T2 construct: purchased New England Biolabs 6010; host or cells: E. coli
Briefly: Kinase Selectivity Assay Casein Kinase 2. Particulars: Kinase Selectivity, Tables 2a-2k; read-out: Caseine Kinase 2 IC50. The assay is classed as biochemical. In a few lines: as §1

Assay [2] addresses T3, Calmodulin Kinase (calmodulin-dependent protein kinase 2) (Rattus norvegicus, UniProt P11275).
T3 construct: a truncated version of the alpha subunit of the rat protein; purchased New England Biolabs 6060; host or cells: insect cells
Briefly: Kinase Selectivity Assay Calmodulin Kinase. The assay is classed as biochemical. Conditions: Kinase Selectivity, Tables 2a-2k; read-out: Calmodulin Kinase 2 IC50. In a few lines: as §1

Assay [3] has as its target T4, Glycogen Synthase Kinase-3 (beta isoform) (Oryctolagus cuniculus, UniProt G1T8E2).
T4 construct: purchased New England Biolabs 6040; host or cells: E. coli
Briefly: Kinase Selectivity Assay Glycogen Synthase Kinase-3. The assay is classed as biochemical, rabbit. Conditions: Kinase Selectivity, Tables 2a-2k; read-out: GSK-3 IC50. In a few lines: as §1

The target in assay [4] is T5, MAP Kinase (ERK-2 isoform) (Rattus norvegicus, UniProt P63086).
T5 construct: polyhistidine (N); host or cells: E. coli
Briefly: Kinase Selectivity Assay MAP Kinase (ERK-2). The assay is classed as biochemical. Particulars: Kinase Selectivity, Tables 2a-2k; read-out: ERK 2 IC50. The essentials:
as §1

Assay [5] addresses T6, PDGF-R (platelet derived growth factor receptor) beta subunit kinase domain (Homo sapiens, UniProt P09619).
T6 construct: nucleotides 1874-3507 of the human PDGF-R beta subunit kinase domain; polyhistidine (N)
Briefly: Kinase Selectivity Assay PDGF-R. Particulars: Kinase Selectivity, Tables 2a-2k; read-out: PDGF-R kinase IC50. The assay is classed as biochemical. In a few lines: as §1

In assay [6] the test system is HeLa cervical adenocarcinoma. Briefly: Inhibition of Cell Proliferation (14C-thymidine incorporation), HeLa. Particulars: Homo sapiens, HeLa cell line. The assay is classed as cell-based. In a few lines: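 3000-8000 cells/well, 24 h preculture; cmpd in DMSO 24 h; + 0.2 uCi/well methyl 14C-thymidine (56 mCi/mmol) 24 h with drug; 37° C, 5% CO2; PBS wash x2; scintillation count of label incorporated; DMSO controls.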
(Uptake of a labelled nucleoside into DNA is a usual measure of proliferation.)

T2 sequence (P68400 whole entry): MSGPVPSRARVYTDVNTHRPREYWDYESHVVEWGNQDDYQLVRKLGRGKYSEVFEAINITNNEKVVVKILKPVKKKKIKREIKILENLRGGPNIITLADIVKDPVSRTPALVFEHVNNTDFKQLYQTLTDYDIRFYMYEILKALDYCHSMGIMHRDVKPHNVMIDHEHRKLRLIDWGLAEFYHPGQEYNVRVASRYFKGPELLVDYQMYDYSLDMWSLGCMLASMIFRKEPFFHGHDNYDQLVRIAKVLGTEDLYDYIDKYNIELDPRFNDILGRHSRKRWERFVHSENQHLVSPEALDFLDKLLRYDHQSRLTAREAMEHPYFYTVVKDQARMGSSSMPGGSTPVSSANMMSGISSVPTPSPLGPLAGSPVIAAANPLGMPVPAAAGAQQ
T2 sequence (P67870 whole entry partner): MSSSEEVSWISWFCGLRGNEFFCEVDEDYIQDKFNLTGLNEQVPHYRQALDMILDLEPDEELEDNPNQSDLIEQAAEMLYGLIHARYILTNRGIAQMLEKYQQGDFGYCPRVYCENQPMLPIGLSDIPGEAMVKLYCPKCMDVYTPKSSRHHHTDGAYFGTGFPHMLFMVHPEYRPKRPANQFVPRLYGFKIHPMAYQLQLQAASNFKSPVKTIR
T6 sequence (P09619 564-1106): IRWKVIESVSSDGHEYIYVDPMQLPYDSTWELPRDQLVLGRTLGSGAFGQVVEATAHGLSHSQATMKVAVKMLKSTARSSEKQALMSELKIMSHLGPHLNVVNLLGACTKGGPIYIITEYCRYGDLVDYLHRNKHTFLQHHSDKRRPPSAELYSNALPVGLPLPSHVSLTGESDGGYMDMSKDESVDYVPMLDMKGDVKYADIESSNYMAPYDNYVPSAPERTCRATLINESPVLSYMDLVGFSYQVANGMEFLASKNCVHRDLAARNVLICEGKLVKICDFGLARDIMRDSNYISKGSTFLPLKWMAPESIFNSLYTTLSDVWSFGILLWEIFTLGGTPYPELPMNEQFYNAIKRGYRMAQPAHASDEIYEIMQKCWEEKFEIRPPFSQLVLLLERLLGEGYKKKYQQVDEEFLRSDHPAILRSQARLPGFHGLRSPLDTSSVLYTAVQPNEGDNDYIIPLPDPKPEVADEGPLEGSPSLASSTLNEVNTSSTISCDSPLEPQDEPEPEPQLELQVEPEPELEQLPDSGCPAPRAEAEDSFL
T4 sequence (G1T8E2 1-432): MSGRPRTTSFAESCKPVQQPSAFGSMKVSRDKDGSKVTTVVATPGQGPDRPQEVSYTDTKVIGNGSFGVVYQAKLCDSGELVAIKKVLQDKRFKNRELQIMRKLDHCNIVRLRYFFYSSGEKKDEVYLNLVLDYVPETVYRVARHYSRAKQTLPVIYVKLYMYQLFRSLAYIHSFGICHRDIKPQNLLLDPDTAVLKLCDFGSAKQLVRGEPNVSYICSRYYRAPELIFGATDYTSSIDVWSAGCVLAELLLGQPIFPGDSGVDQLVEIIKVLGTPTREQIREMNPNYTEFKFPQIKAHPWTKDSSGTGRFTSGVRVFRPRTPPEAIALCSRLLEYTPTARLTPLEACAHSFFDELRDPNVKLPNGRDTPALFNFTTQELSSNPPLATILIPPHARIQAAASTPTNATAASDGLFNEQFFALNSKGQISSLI
Chain of Insulin Receptor Kinase (P06213 980-1352): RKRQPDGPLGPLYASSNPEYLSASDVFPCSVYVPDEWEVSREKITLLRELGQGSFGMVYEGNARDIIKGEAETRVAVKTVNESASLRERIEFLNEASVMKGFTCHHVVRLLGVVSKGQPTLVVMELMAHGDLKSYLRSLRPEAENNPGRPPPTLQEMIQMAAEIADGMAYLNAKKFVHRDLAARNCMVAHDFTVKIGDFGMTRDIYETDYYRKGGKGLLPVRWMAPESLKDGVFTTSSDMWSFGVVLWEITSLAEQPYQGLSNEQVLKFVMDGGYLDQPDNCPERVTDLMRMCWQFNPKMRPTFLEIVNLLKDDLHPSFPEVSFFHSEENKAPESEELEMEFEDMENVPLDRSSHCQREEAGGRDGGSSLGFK
T5 sequence (P63086 whole entry, canonical isoform): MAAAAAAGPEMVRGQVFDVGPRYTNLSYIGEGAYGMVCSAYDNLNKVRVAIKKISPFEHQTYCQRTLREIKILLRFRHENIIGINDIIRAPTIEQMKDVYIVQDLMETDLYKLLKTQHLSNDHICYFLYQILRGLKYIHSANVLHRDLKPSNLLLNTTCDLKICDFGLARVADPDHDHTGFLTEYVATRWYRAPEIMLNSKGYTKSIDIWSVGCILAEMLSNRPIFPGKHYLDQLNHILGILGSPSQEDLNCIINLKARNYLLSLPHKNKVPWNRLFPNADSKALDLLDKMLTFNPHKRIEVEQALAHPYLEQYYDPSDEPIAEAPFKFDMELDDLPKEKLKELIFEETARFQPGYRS

Regarding `CC(O)c1ccc(F)c(C(=O)n2nc(Nc3ccc(S(N)(=O)=O)cc3)nc2N)c1F` (stereo not drawn) [Cpd 58, 4-[[5-amino-1-[2,6-difluoro-3-(1-hydroxyethyl)benzoyl]-1H-1,2,4-triazol-3-yl]amino]-benzenesulfonamide], the IC50 (as a rule, the concentration that gives 50% inhibition) was more than 100 µM on Insulin Receptor Kinase; more than 100 µM on Protein Kinase A; more than 100 µM in assay [1]; more than 100 µM in assay [2]; 0.015 µM in assay [3]; 10.7 µM in assay [4]. Further, the IC50 was 8.53 µM in assay [5] and 186 nM in assay [6].

As to `Cc1ccc(F)c(C(=O)n2nc(Nc3ccc(S(N)(=O)=O)cc3)nc2N)c1Cl` [Cpd 69, 4-[[5-amino-1-(2-chloro-6-fluoro-3-methylbenzoyl)-1H-1,2,4-triazol-3-yl]amino]-benzenesulfonamide], the 50% inhibitory concentration (IC50) at Insulin Receptor Kinase was 45.1 µM; on Protein Kinase A, 46.6 µM; in assay [1], more than 100 µM; in assay [2] it was more than 100 µM; in assay [3], 0.147 µM; in assay [4], 12.5 µM. The IC50 amounted to 0.1 µM in assay [5] and 218 nM in assay [6].

Turning to `Nc1nc(Nc2ccc(S(N)(=O)=O)cc2)nn1C(=O)c1c(F)cccc1Cl` [Cpd 70, 4-[[5-amino-1-(2-chloro-6-fluorobenzoyl)-1H-1,2,4-triazol-3-yl]amino]-benzenesulfonamide], the IC50 is more than 100 µM on Insulin Receptor Kinase; 34.2 µM at Protein Kinase A; more than 100 µM in assay [1]; more than 100 µM in assay [2]; 0.22 µM in assay [3]; 19.4 µM in assay [4]. For the same compound, the values for the IC50 in assay [5] and in assay [6] were 16.2 µM and 196 nM, respectively.

On to `CN1CCN(c2ccc(Nc3nc(N)n(C(=O)c4c(F)cccc4F)n3)cc2)CC1` [Cpd 71, 1-(2,6-difluorobenzoyl)-N^3-[4-(4-methyl-1-piperazinyl)phenyl]-1H-1,2,4-triazole-3,5-diamine], for which the IC50 was 35.3 µM at Insulin Receptor Kinase; more than 100 µM on Protein Kinase A; more than 100 µM in assay [1]; 60.9 µM in assay [2]; 1.72 µM in assay [3]; more than 100 µM in assay [4]. Also, the IC50 is 27 µM in assay [5] and 1920 nM in assay [6].

As to `CNS(=O)(=O)c1ccc(Nc2nc(N)n(C(=O)c3c(F)ccc(C)c3F)n2)cc1` [Cpd 81, 4-[[5-amino-1-(2,6-difluoro-3-methylbenzoyl)-1H-1,2,4-triazol-3-yl]amino]-N-methyl-benzenesulfonamide], the IC50 at Insulin Receptor Kinase is 29.6 µM; on Protein Kinase A it was more than 100 µM; in assay [1], more than 100 µM; in assay [2] it was more than 100 µM; in assay [3], 0.049 µM; in assay [4] it was 11.7 µM. For the same compound, the IC50 in assay [5] is 7.76 µM; in assay [6] it was 189 nM.

For `CNS(=O)(=O)c1ccc(Nc2nc(N)n(C(=O)c3sccc3C)n2)cc1` [Cpd 82, 4-[[5-amino-1-[(3-methyl-2-thienyl)carbonyl]-1H-1,2,4-triazol-3-yl]amino]-N-methyl-benzenesulfonamide], the IC50 at Insulin Receptor Kinase was 1.1 µM; at Protein Kinase A, more than 100 µM; in assay [1] it was more than 100 µM; in assay [2], more than 100 µM; in assay [3] it was 0.025 µM; in assay [4], 1.95 µM. Moreover, the IC50 in assay [5] was 0.042 µM; in assay [6], 245 nM.

For `CCc1ccc(C(=O)n2nc(Nc3ccc(S(=O)(=O)NC)cc3)nc2N)s1` [Cpd 84, 4-[[5-amino-1-[(5-ethyl-2-thienyl)carbonyl]-1H-1,2,4-triazol-3-yl]amino]-N-methyl-benzenesulfonamide], the IC50 at Insulin Receptor Kinase was 0.172 µM; at Protein Kinase A it was 2.2 µM; in assay [1], 1.67 µM; in assay [2], more than 100 µM; in assay [3] it was 0.019 µM; in assay [4] it was 1.22 µM. In addition, the IC50 turned out to be 0.28 µM in assay [5] and 142 nM in assay [6].

With `CCc1ccc(C(=O)n2nc(Nc3ccc(S(=O)(=O)NCCN(C)C)cc3)nc2N)s1` [Cpd 103, 4-[[5-amino-1-[(5-ethyl-2-thienyl)carbonyl]-1H-1,2,4-triazol-3-yl]amino]-N-[2-(dimethylamino)ethyl]-benzenesulfonamide], the IC50 on Insulin Receptor Kinase was 0.123 µM; on Protein Kinase A, more than 100 µM; in assay [1] it was 5.3 µM; in assay [2] it was more than 100 µM; in assay [3], 0.013 µM; in assay [4], 0.845 µM. In addition, the IC50 in assay [5] came out at 0.702 µM; in assay [6] it was 62 nM.

For the compound `Cc1ccsc1C(=O)n1nc(Nc2ccc(S(=O)(=O)NCCN(C)C)cc2)nc1N` [Cpd 104, 4-[[5-amino-1-[(3-methyl-2-thienyl)carbonyl]-1H-1,2,4-triazol-3-yl]amino]-N-[2-(dimethylamino)ethyl]-benzenesulfonamide], the IC50 on Insulin Receptor Kinase was 2.09 µM; on Protein Kinase A it was more than 100 µM; in assay [1], more than 100 µM; in assay [2], more than 10 µM; in assay [3], 0.02 µM; in assay [4], more than 100 µM. Also, the IC50 in assay [5] came to 0.192 µM; in assay [6], 186 nM.

`Cc1ccsc1C(=O)n1nc(Nc2ccc(N3CCNC3=O)cc2)nc1N` [Cpd 113, 1-[4-[[5-amino-1-[(3-methyl-2-thienyl)carbonyl]-1H-1,2,4-triazol-3-yl]amino]phenyl]-2-imidazolidinone]: the IC50 at Insulin Receptor Kinase was more than 10 µM; at Protein Kinase A, more than 100 µM; in assay [1], more than 100 µM; in assay [2], more than 10 µM; in assay [3] it was 0.071 µM; in assay [4] it was more than 100 µM. In addition, the IC50 was 0.37 µM in assay [5] and 242 nM in assay [6].

Regarding `Cc1ccsc1C(=O)n1nc(Nc2ccc(N3CCCS3(=O)=O)cc2)nc1N` [Cpd 116, N^3-[4-(1,1-dioxido-2-isothiazolidinyl)phenyl]-1-[(3-methyl-2-thienyl)carbonyl]-1H-1,2,4-triazole-3,5-diamine], the IC50 on Insulin Receptor Kinase was more than 100 µM; on Protein Kinase A, more than 100 µM; in assay [1], more than 100 µM; in assay [2], more than 100 µM; in assay [3], 0.062 µM; in assay [4], more than 100 µM. The IC50 in assay [5] is 0.302 µM; in assay [6], 380 nM.

Consider `Nc1nc(Nc2ccc(N3CCCS3(=O)=O)cc2)nn1C(=O)c1c(F)cccc1F` [Cpd 117], for which the IC50 is more than 100 µM on Insulin Receptor Kinase; more than 100 µM at Protein Kinase A; more than 100 µM in assay [1]; more than 100 µM in assay [2]; 1.04 µM in assay [3]; more than 100 µM in assay [4]. In addition, the IC50 in assay [5] was more than 100 µM; in assay [6] it was 2060 nM.

In the case of `Nc1nc(Nc2ccc(S(=O)(=O)Nc3ccccn3)cc2)nn1C(=O)c1c(F)cccc1F` [Cpd 118, 4-[[5-amino-1-(2,6-difluorobenzoyl)-1H-1,2,4-triazol-3-yl]amino]-N-(2-pyridinyl)-benzenesulfonamide], the IC50 on Insulin Receptor Kinase was more than 100 µM; on Protein Kinase A it was more than 100 µM; in assay [1] it was more than 100 µM; in assay [2] it was more than 100 µM; in assay [3], 0.159 µM; in assay [4], more than 100 µM. The IC50 in assay [5] was more than 100 µM; in assay [6], 1940 nM.

Take `Cc1cc(C)c(C(=O)n2nc(Nc3ccc(S(=O)(=O)Nc4ccccn4)cc3)nc2N)s1` [Cpd 120]: the IC50 at Insulin Receptor Kinase was more than 100 µM; at Protein Kinase A, more than 100 µM; in assay [1] it was more than 100 µM; in assay [2], more than 100 µM; in assay [3], 0.018 µM; in assay [4] it was more than 100 µM. The concentration for half-maximal inhibition (IC50) came out at 0.822 µM in assay [5] and 978 nM in assay [6].

For `Cc1ccc(F)c(C(=O)n2nc(N)nc2Nc2ccc(S(N)(=O)=O)cc2)c1F` [Cpd 123, 4-[[3-amino-1-(2,6-difluoro-3-methylbenzoyl)-1H-1,2,4-triazol-5-yl]amino]-benzenesulfonamide], the IC50 on Insulin Receptor Kinase is more than 100 µM; at Protein Kinase A, more than 100 µM; in assay [1], more than 100 µM; in assay [2] it was more than 100 µM; in assay [3], 3.01 µM; in assay [4], more than 100 µM. Moreover, the results for the IC50 in assay [5] and in assay [6] were more than 100 µM and 28500 nM, respectively.
